“Also recorded” adds a separate entry of the source. Counter-ions that a name gives are not always drawn. Like-named read-outs stand apart in the source and are kept apart here.
Columns and labels:
[1] = target: T1, αSN (15 μM monomeric αSN doped with 5% αSN PFF seeds) (Homo sapiens, UniProt P37840); assay: Seeded Thioflavin-T aggregation assay; assay type: biochemical; settings: 15 μM αSN monomer + 5% PFF; for IC50: 37 °C, max ThT intensity
T1 construct: made in house; host or cells: Escherichia coli BL21(DE3), T7-7 plasmid
Method: Figure 11 and Supplementary Fig. 23 present results from a dose-response-seeded aggregation assay. Vehicle, control, and hit compounds were incubated with 15 µM αSN(m), doped with 5% freshly sonicated αSN PFF in PBS under mild agitation (Supplementary Fig. 23a). […] Titration of control and hit compounds were run in triplicate; representative traces of hit compounds are illustrated in Fig. 11a with a full summary of each titration detailed in Supplementary Fig. 23c–h. IC50 was determined for each compound by determining the max ThT intensity for each concentration (Fig. 11b).
Seeded ThT aggregation assay was performed using 15 μM monomeric αSN doped with 5% (0.75 μM sonicated αSN pre-formed fibril (PFF) seeds) in a 384-well plate under slow agitation (300 RPM) at 37 °C. a Control samples for the aggregation include PBS (black), αSN monomer (brown), 5% αSN PFF (red), and the 15 μM monomer+5% PFF mixture (orange). Dose-response curves were made with a titration of compounds. […] In contrast, RO and DEM both show potent effects relative to Baicalin and EGCG controls. BAY does have some response, but it lags behind other hit compounds. b Normalizing the initial peak in ThT data allows us to estimate an IC50 for each hit. […] Although there is a small trend with BAY, the data cannot be fit to resolve an IC50.
ThT (Sigma, product no. T3516) was dissolved in PBS buffer and was filtered through a 0.2-µm syringe filter to make a stock solution of 2.5 mM. Working ThT concentration was 20 µM. PFF seeds were produced via constant agitation of 1000 RPM at 37 °C (ThermoMixer-C, Eppendorf, Hauppauge, NY) of 500 µL of 350 µM αSN in PBS in a 2 mL tube for 5 days. PFFs were aliquoted and flash frozen and stored at −80 °C until further use. PFF seeds were rapidly thawed, diluted to 35 µM in PBS, and sonicated 120 pulses at 50% using a probe-tip sonicator following the established protocols. Master mix samples for each of the different ThT assays were prepared and dispensed in triplicate as 50 µL in 384-well flat, black-bottom polypropylene plates (PN 781209, Greiner Bio-One) and sealed with fluorescently transparent film. Conditions for non-seeded, seeded, and cell homogenate assays varied slightly.
Seeded ThT experiments were performed at a lower monomer concentration to preclude spontaneous αSN aggregation during the time course of the experiment. For both seeded and cell homogenate experiments, sample were prepared in PBS + 20 µM ThT with or without 15 µM αSN(m) +/− 5% PFF (0.75 µM). Additional control samples of 15 µM PFF and 0.75 µM PFF were also prepared. All empty wells were filled with PBS for a thermal sink and to help prevent evaporation. Assay plates were prepared as pre-cellular FRET dose response above. Dose response was done across 8 concentrations (10 nM to 50 µM). The assay was run at 37 °C with mild shaking (200 RPM) in a Cytation3 plate reader. The ThT fluorescence was monitored with excitation filter of 450 nm and emission filter of 490 nm. Readings were acquired every 20 min for a minimum of 24 h. Seeded ThT aggregation IC50 values were determined by first normalizing all ThT curves to the maximal signal at plateau for the αSN + 5% PFF + DMSO samples. The normalized fluorescence at each concentration was fit to the Hill equation to resolve an effective IC50 of seeded aggregation inhibition.

[2] = target: T2, A53T αSN oligomer (inter-protomeric) FRET biosensor in HEK293 cells (Homo sapiens, UniProt P37840, A53T); assay: FLT dose response, A53T oligomer (inter-protomeric) FRET biosensor; assay type: cell-based; settings: 1 nM to 50 μM
T2 construct: In addition to full-length αSN fusion constructs, we observe both C-terminally and N-terminally truncated αSN species; expressed in transfected cells; host or cells: HEK293
Method: Hits from the pilot HTS of the LOPAC library were selected and dispensed into 384-well plates to verify reproducible and specific FLT trends using the WT and A53T oligomer (inter-protomeric) FRET biosensors. Figure 6 presents a subset of these dose-response curves for hit compounds RO, BAY, SB206553, and DEM, along with known control compound EGCG. […] Assay quality was determined by Z′ (Eq. 2) where a Z′ > 0.5 indicates good assay quality. Using EGCG as control compound and the hit DEM, we calculated Z′ value of 0.76 and 0.66, respectively, indicating excellent assay quality.
Fig. 6 FRET dose response of pilot HTS hits. A subset of hits were evaluated using both WT (a) and A53T (b) oligomer biosensor to verify both increased FLT (disrupting αSN–αSN interactions) and decreased FLT (tighter aggregation or remodeled oligomers).
Compounds were tested in a FLT dose-response assay. The compound was dissolved to 10 mM in DMSO, then serially diluted in 96-well mother plates. Each hit was re-screened for FLT dose response across eight concentrations (1 nM to 50 μM). Compounds (0.5 μL) were transferred from mother plates into assay plates using a Mosquito HV liquid handler (TTP Labtech Ltd, UK). The preparations for αSN FRET biosensors were carried out as above.

[3] = tested on: SH-SY5Y cells overexpressing unlabeled wild-type (WT) αSN; assay: CytoTox-Glo cytotoxicity assay: rescue of αSN-induced cytotoxicity; assay type: cell-based, human; settings: for rescue of αSN-induced cytotoxicity: dose response, 48-h exposure; for rescue of toxicity in three-dose preliminary screen: three-dose assay; for EC50: read-out: EC50, protection of SH-SY5Y cells from αSN-induced death
Method: Hit compounds were evaluated for rescue of αSN-induced cytotoxicity in using an SH-SY5Y neuroblastoma cell model of alpha-synucleinopathy[18],[69]–[72]. […] A seven-point CRC for RO, BAY, DEM, and Anle138b (positive control compound[41],[73]) was performed to determine IC50 for each compound. […]
Cell cytotoxicity was measured using the CytoTox-Glo (Promega Corporation) Luminescence Assay Kit. SH-SY5Y human neuroblastoma cells were plated at a density of 5 × 10^6 cells/plate in 100 mm plate (Corning) and transfected with unlabeled WT αSN or equivalent vector-only control for 24 h. The transfected cells were then plated at a density of 5000 cells/well in white solid 96-well plate (Corning) with a total volume of 100 μL, followed by treatment with hit compounds spanning a range of concentrations (0.1 nM to 100 μM), as well as DMSO-only controls, for another 48 h. After incubation, 50 μL of CytoTox-Glo Cytotoxicity Assay Reagent was added to all wells followed by mixing by orbital shaking and incubation in the dark for 15 min at RT. Luminescence readings were measured using a Cytation3 Cell Imaging Multi-Mode Reader luminometer (BioTek). After the first read, 50 μL of Lysis Reagent was added, incubated for 15 min at RT, and a second read performed. Total viable cellular luminance was determined by the difference between the first and second luminescence signal and total cellular viability is determined by normalizing to the no-treatment samples.

| effect on seeded aggregation ([1]; titration up to 50 μM) | FLT trend in dose response [2] | IC50 [1] [nM] | Structure (SMILES) | rescue of αSN-induced cytotoxicity [3] | rescue of toxicity in three-dose preliminary screen [3] | EC50 ([3]; Homo sapiens, SH-SY5Y, 72-h transfection, 48-h exposure to compound, seven-point CRC) [nM] | IC50 ([3]; Homo sapiens, SH-SY5Y, 72-h transfection, 48-h exposure to compound, seven-point CRC, read-out: IC50, inhibition of αSN-induced toxicity) [nM] | EC50 ([3]; 72-h transfection, 48-h exposure to compound, seven-point CRC) [nM] |
| --- | --- | --- | --- | --- | --- | --- | --- | --- |
| cannot be fit | reduced FLT |  | COC(=O)C1=C(C)NC(C)=C([N+](=O)[O-])C1c1ccccc1C(F)(F)F (racemic) [BAY, (±)-Bay K 8644] | reduced effect; also recorded: did not rescue | only mild recovery |  |  |  |
|  | reduced FLT | 1000 | CN(C)[C@@H]1C(O)=C(C(N)=O)C(=O)[C@@]2(O)C(O)=C3C(=O)c4c(O)ccc(Cl)c4[C@@H](O)[C@H]3C[C@@H]12 [DEM, Demeclocycline HCl] | clear dose-dependent rescue of toxicity | strong response | 65 | 65 |  |
|  | reduced FLT | 931 | Nc1ccc(-c2nc3ccc(-c4nc5ccc(N)cc5[nH]4)cc3[nH]2)cc1 [RO, Ro 90–7501] | clear dose-dependent rescue of toxicity | strong response |  |  | 78 |

Source: article PMC8238948, “Potent inhibitors of toxic alpha-synuclein identified via cellular time-resolved FRET biosensors” (NPJ Parkinson's Disease, 2021)
